Patent US20140243281A1, “BILE ACID RECYCLING INHIBITORS FOR TREATMENT OF PEDIATRIC CHOLESTATIC LIVER DISEASES” (Lumena Pharmaceuticals, Inc., priority 2011, published 2014)
Like-named read-outs stand apart in the source and are kept apart here. Marks after values point to notes of the source that are not given here.

Legend:
[1] = system: Male Zucker diabetic fatty rats (ZDF/GmiCrl-fa/fa); experiment: Fecal bile acid excretion and plasma bile acid concentrations in ZDF rats given 264W94; format: in vivo, rat; conditions: 2 weeks
Method: Male Zucker diabetic fatty rats (ZDF/GmiCrl-fa/fa) were purchased from Charles River (Raleigh, N.C.) and housed under controlled conditions (12:12 light-dark cycle, 24° C. and 50% relative humidity) with free access to rodent food (Purina 5008, Harlan Teklad, Indianapolis, Ind.). All rats arrived at seven weeks of age (±3 days). After a one-week acclimation period, rats were anesthetized with isoflurane (Abbott Laboratories, IL) and tail-vein blood samples were collected at 9 am without fasting. Blood glucose levels were measured using a glucometer (Bayer, Leverkusen, Germany). In order to ensure balanced treatment groups, ZDF rats were assigned to six treatment groups based upon baseline glucose: vehicle (0.5% HPMC, 0.1% Tween80) and five doses of 264W94 (0.001, 0.01, 0.1, 1, 10 mg/kg). All treatments were given via oral gavage twice a day and animals were followed for two weeks with blood samples collected from tail vein at the end of each week at 9 am without fasting. Fecal samples were collected for 24 hours during the second week of treatment.
Non-esterified fatty acids (NEFA), bile acids, and bile acids in fecal extraction were measured using the Olympus AU640 clinical chemistry analyzer (Beckman Coulter, Irving, Tex.).

Male beagle dogs [2] = experiment: Time to onset of activity on postprandial serum total bile acids in beagle dogs; format: in vivo; conditions: dog
Method: (§1) Test compound: LUM001-Form I
(§2) LUM001 was dissolved in water at concentrations that required the administration of 0.2 ml/kg of solution. Solutions were placed into gelatin capsules, Torpac Inc., size 13 Batch 594, East Hanover N.J., and administered orally.
(§3) Male beagle dogs were obtained from Covance Research Products, Cumberland Va. or Marshall Farms USA, Inc., North Rose N.Y. A total of 20 dogs, 1 to 5 years old, 6.8 to 15.6 kg body weight, were used in these experiments. The dogs were conditioned to a 12 hour light/dark cycle and maintained on a feeding restriction of 1 hour per day access to food (Richman Standard Certified Canine Diet #5007, PMI Nutrition, Inc., St Louis Mo.) from 7 to 8 AM. They were trained to eat a special meal promptly within 20 minutes when presented (1 can. 397 g, Evanger's 100% Beef for Dogs, Evanger's Dog and Cat Food Co., Inc., Wheeling Ill., mixed with 50 g of sharp cheddar cheese.).
(§4) SBA was measured by an enzymatic assay. SBA values are expressed as μg of total bile acids/ml of serum.
To estimate the details of this plateau, 6 dogs were given a test meal and blood samples for SBA measurement were collected at −30, 0, 30, 60, 65, 70, 80, 90, 120, 180, 240, 360, 480, 720, 1410 and 1440 minutes from the time of feeding. Any remaining food was removed 20 min after it was first presented to the dogs. […]

Male beagle dogs [3] = experiment: Duration of action on dog serum bile acids, Method 1: two meals for extended SBA elevation; format: in vivo; conditions: for Serum Bile Acid, Mean: full meal at 0 hr, dosed at 1 hr, half meal at 4 hr
Method: as §1, §2, §3, §4
To estimate the details of this plateau, 6 dogs were given a test meal and blood samples for SBA measurement were collected at −30, 0, 30, 60, 65, 70, 80, 90, 120, 180, 240, 360, 480, 720, 1410 and 1440 minutes from the time of feeding. Any remaining food was removed 20 min after it was first presented to the dogs. To establish a method for extending the elevated plateau of SBA, 6 dogs were given the meal at 0 hr and an additional ½ size meal again 4 hr after their first meal. Blood samples were taken at 0, 1, 2, 3, 4, 4.5, 6, 7 and 8 hr. The curves for SBA level vs time obtained in these experiments were used as references for determining blood sampling times in experiments with LUM001. Wherever possible, experimental design permitting, in experiments with test compound, each dog served as its own simultaneous control, and the mean 1 hr SBA value served as the reference to which all other mean values were compared.
In dogs a single experimental meal produces a postprandial rise in SBA that is elevated to a peak at 1 hour after feeding and constant for an additional 3 hours. Previous experiments (2) indicate that LUM001 remains active for more than 4.5 hours. To measure the duration of action of an ASBT inhibitor using postprandial SBA levels requires that in the control situation the SBA levels remain elevated and constant for the entire period of compound action, or that the compound be administered long before the postprandial rise occurs, and remain active in the empty digestive system for long periods before feeding. Accordingly, two alternative methods were used to provide a window of constant SBA elevation that could be used to measure the duration of action of ASBT inhibitors.
[…] At 4 hours after the meal was offered, a second meal of ½ the size of the first meal was offered. It too was consumed as promptly and thoroughly as the first meal, and provided an extended, constant SBA plateau. Blood samples for SBA measurement were taken at 0, 1, 1.5, 2, 4, 4.5, 5, 5.5, 6, 6.5, 7, 7.5 and 8 hours from the time of offering the first meal. Mean SBA levels were compared to the mean SBA level at 1 hour, each dog serving as its own control.
All animals were fed a full meal at 0 hour, dosed orally with the compound at 1 hour and then fed an additional one-half meal at 4 hours. *=p<0.05 compared to the mean value in the same curve at 1 hour by two-tailed paired two-sample t-test.

healthy, adult subjects = experiment: Phase 1 ascending multiple oral doses in healthy subjects: serum and fecal bile acid analysis; format: in vivo, human; conditions: 28 days
Method: This Phase 1 study was a randomized, double-blind, placebo-controlled study of ascending multiple oral doses of LUM001 in healthy, adult subjects. This study was conducted at a single center. There were 13 LUM001 dosing panels: 10, 20, 60, 100, and 20 mg every morning (qAM) (2) (i.e., the regimen was tested a second time in the study), 5 mg every evening (qPM), 0.5, 1, 2.5, 5, 2.5 (2), 5 (2), and 0.5 to 5 mg qAM dose titration. Most of the dosing panels included subjects treated with matching placebo. Shown in the graphs are data from the 0.5 (n=16), 1.0 (n=8), 2.5 (n=8), 5.0 (n=8) and 10 (n=8) mg dosing groups. […]
SBA were analyzed as part of the routine clinical analysis of the serum samples collected at each time point.
Fecal samples were collected for all panels except the dose-titration panel, 2.5 (2) and 5 mg (2), on Days 9 through 14 and 23 through 28 (data shown in FIG. 4). Twenty-four hour FBA excretions were quantified by Pharmacia for Days 9 through 14 and 23 through 28. […] The weight of each 24-hour fecal collection was recorded on the CRFs. […]
An aliquot for each 24-hour fecal sample collected on Days 23 through 28 was combined, homogenized, and analyzed for bile acid species concentrations by ANAPHARM. The fecal bile acid species evaluated include chenodeoxycholic acid, cholic acid, deoxycholic acid, and lithocholic acid.

[4] = Pharmacokinetics (systemic exposure) of LUM001 in pediatric subjects; format: in vivo, human; conditions: for concentration at 8 day: human, serum, read-out: Average serum drug exposure
Method: (§5) LUM001 has been administered to forty patients under the age of 18 years old. […] The drug was administered once-a-day (QD) in the morning for fourteen days. […] These doses are similar to those using to treat children with cholestatic diseases.

[5] = system: children and adolescents under the age of eighteen; experiment: Fasting serum bile acid and morning post-prandial peak in pediatric subjects; format: in vivo, human; conditions: QD in the morning
Method: as §5
The efficacy of LUM001 was determined by measuring total serum bile acids after eight days of dosing in children and adolescents under the age of eighteen. Thirty minutes before the next drug administration, at approximately 8 am in the morning, serum bile acid levels were measured. The child had refrained from food for 12 hours prior to this sample thus providing a fasted level of serum bile acid. After breakfast, serum bile acids were measured for up to the next 4 hours (8 am to noon) and the peak serum bile acid concentration noted.

[6] = system: treated subjects aged 10-17; experiment: Pediatric multiple-dose study, tolerability; format: in vivo, human; conditions: 2 weeks daily up to 5 mg q.d.; 39 treated subjects aged 10-17
Source text: (39 treated subjects aged 10-17).

Male ZDF rats = experiment: Plasma bile acid levels of ZDF rats after ascending doses of SC-435 and LUM002; format: in vivo, rat; conditions: ZDF rats n=4; all doses (SC-435 1, 10, 30 mg/kg; LUM002 0.3, 1, 3, 10, 30 mg/kg) oral gavage twice a day, 2 weeks
Method: FIG. 2. Plasma bile acid levels of ZDF rats after administration of ascending doses of SC-435 and LUM002. Male ZDF rats (n=4) were administered vehicle, SC-435 (1, 10 or 30 mg/kg) or LUM002 (0.3, 1, 3, 10 or 30 mg/kg) by oral gavage twice a day for 2 weeks. Plasma bile acid levels were determined at the end of the second week. Data are expressed as mean values±SEM.
Male ZDF rats (n=4) were administered vehicle, SC-435 (1, 10 or 30 mg/kg) or LUM002 (0.3, 1, 3, 10 or 30 mg/kg) by oral gavage twice a day for 2 weeks. Plasma bile acid levels were determined at the end of the second week. […] Data are expressed as mean values±SEM.

Which “Fecal bile acid concentrations elevated compared to vehicle treated rats” value ([1]; 0.001-10 mg/kg oral gavage twice a day, 24 h feces in second week) does the source give for `CCCC[C@]1(CC)CS(=O)(=O)c2cc(OC)c(OC)cc2[C@@H](c2ccccc2)N1` [Compound 264W94] here?
The value was “up to 6.5 fold”.

And the “ED50 for elevation of fecal bile acid concentrations” value ([1]; oral gavage twice a day)?
The value was 0.17 mg/kg.

What about the “Fecal NEFA” value ([1]; oral gavage twice a day) of the same compound?
The value was “slightly increased”.

And the “Plasma bile acid concentrations” value ([1]; oral gavage twice a day)?
The value was “decreased dose-dependently”.

What does the source list for `CCCCC1(CCCC)CS(=O)(=O)c2ccc(N(C)C)cc2[C@@H](c2ccc(OCc3ccc(C[N+]45CCN(CC4)CC5)cc3)cc2)[C@H]1O` [LUM001]?
Time after dosing to significantly lowered SBA levels (Male beagle dogs [2]; 0.05 mg/kg oral): 1 to 2 h; Serum Bile Acid, Mean (Male beagle dogs [2]; 1 mg/kg p.o., 0 min from feeding, fed at 0 min, dosed at 60 min): 2.8 µg/mL; Serum Bile Acid, Mean (Male beagle dogs [3]; 0 hr): 1.4 µg/mL; Serum Bile Acid, Mean (Male beagle dogs [3]; 1 hr): 9.2 µg/mL; Serum Bile Acid, Mean (Male beagle dogs [3]; 1.5 hr): 9.6 µg/mL; Serum Bile Acid, Mean (Male beagle dogs [3]; 2 hr): 6.7 µg/mL; Serum Bile Acid, Mean (Male beagle dogs [3]; 4 hr): 5.1* μg/ml; Serum Bile Acid, Mean (Male beagle dogs [3]; 4.5 hr): 6.4 µg/mL; Serum Bile Acid, Mean (Male beagle dogs [3]; 5 hr): 7.0 µg/mL; Serum Bile Acid, Mean (Male beagle dogs [3]; 6 hr): 7.0 µg/mL; Serum Bile Acid, Mean (Male beagle dogs [3]; 7 hr): 7.4 µg/mL; Serum Bile Acid, Mean (Male beagle dogs [3]; 8 hr): 6.5 µg/mL; Time LUM001 remains active (Male beagle dogs [3]; previous experiments): more than 4.5 hours; Fecal bile acids (healthy, adult subjects): significant increase; Serum bile acids (healthy, adult subjects): significant reduction; Systemic absorption (levels of systemic exposure measured on day eight) ([4]; children, once-a-day in the morning for fourteen days): minimally absorbed; concentration at 8 day ([4]; Subject 0308, 1.0 mg, 28.9 μg/kg QD): 0 ng/mL; concentration at 8 day ([4]; Subject 0410, 2.5 mg, 42.0 μg/kg QD): 0 ng/mL; concentration at 8 day ([4]; Subject 0510, 5.0 mg, 168.4 μg/kg QD): 0 ng/mL; Decrease of fasting serum bile acid level versus placebo patients [5]: 24%; Decrease of post-prandial peak serum bile acid level versus placebo patients [5]: 23%; Tolerability [6]: well-tolerated

Which “Plasma bile acid levels” value (Male ZDF rats) does the source give for `CCCC[C@]1(CC)CS(=O)(=O)c2ccc(N(C)C)cc2[C@@H](c2cccc(NC(=O)N[C@@H]3O[C@H](COS(=O)(=O)[O-])[C@@H](O)[C@H](OCc4ccccc4)[C@H]3O)c2)[C@H]1O.[K+]` [LUM002] here?
Its value is “decreased”.

With `CCCCC1(CCCC)CS(=O)(=O)c2ccc(N(C)C)cc2[C@@H](c2ccc(OCCCC[N+]34CCN(CC3)CC4)cc2)[C@H]1O.CS(=O)(=O)[O-]` [SC-435, 1-[4-[4-[(4R,5R)-3,3-dibutyl-7-(dimethylamino)-2,3,4,5-tetrahydro-4-hydroxy-1,1-dioxido-1-benzothiepin-5-yl]phenoxy]butyl]-4-aza-1-azoniabicyclo[2.2.2]octane methanesulfonate salt, reference compound] as the compound, how does the “Plasma bile acid levels” value (Male ZDF rats) read?
The value was “decreased”.
